The target in one series is T1, human amylin receptor (Homo sapiens, UniProt O60896+P30988).
T1 construct: host or cells: CHO-K1/Ga15/AMY3 cells, further stably transfected with a CRE-luciferase plasmid
T1 sequence (P30988 25-474): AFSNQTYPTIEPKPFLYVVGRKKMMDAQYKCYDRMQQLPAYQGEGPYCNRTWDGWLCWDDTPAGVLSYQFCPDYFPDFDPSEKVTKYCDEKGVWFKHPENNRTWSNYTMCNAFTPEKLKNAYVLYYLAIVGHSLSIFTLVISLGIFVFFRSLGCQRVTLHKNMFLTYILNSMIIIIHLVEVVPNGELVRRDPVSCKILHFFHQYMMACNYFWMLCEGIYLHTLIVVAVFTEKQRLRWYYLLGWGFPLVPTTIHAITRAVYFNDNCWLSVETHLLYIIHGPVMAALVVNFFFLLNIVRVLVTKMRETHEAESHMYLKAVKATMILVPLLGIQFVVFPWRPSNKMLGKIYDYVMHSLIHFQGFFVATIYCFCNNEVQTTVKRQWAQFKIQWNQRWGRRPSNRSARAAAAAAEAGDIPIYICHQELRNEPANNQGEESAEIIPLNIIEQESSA
T1 sequence (O60896 24-148 partner): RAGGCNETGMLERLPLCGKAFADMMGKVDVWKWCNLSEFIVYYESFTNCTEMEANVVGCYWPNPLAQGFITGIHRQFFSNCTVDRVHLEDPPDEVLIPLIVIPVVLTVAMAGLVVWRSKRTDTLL
Put plainly: Luciferase assay of amylin derivatives in amylin receptor/CRE-luc CHO cell line. The settings on record: CHO-K1/Ga15/AMY3 CRE-luc cells, 24 hours incubation, F12 medium containing 10% FBS; read-out: EC50. It counts as cell-based.

The format of series [1] is physicochemical. Here is the method:
The penicillin bottle after covering was placed in a stability test box at 40° C. Before testing, a sample was centrifuged at 10,000 rpm and 4° C. for 3 minutes, and a supernatant was taken and added into a liquid-phase sample injection bottle. The sample was detected by the liquid phase method in Example 3.

Series [2] in a line: Weight loss efficacy of derivatives in SD rats (Example 5). It counts as in vivo, SD (Sprague Dawley) rats. The settings on record: experimental group B, subcutaneous, 30 nmol/kg. The source says:
SD (Sprague Dawley) rats weighing 200 g to 250 g were selected for this experimental study. Before the experiment, the rats arrived for at least 10 days to 14 days to adapt to the experimental environment. During this period, the rats were fed for two weeks in a reversed light/dark stage (meaning that the light was turned off during the day and turned on during the night) after arrival, and were fed separately in the first week of arrival to ensure accurate data and high test sensitivity, and the rats were free to obtain food and water during the whole adaptation period and experimental period. There were an experimental group [NT]5 and A6, and an experimental group B: B1, B2, B3, B4 and B5, with 5 to 8 rats in each treatment group of the derivative, and the rats in each group were subcutaneously administered with a derivative or a solvent by a dosage of 30 nmol/kg. The administration time of each group was recorded. After administration, the rats were put back into their cages in which the rats could get food and water. Food consumption and weight changes of the rats were recorded every 24 hours by online recording or manual recording. Weight and food intake changes of the SD rats in each group were as shown in FIG. 2A to FIG. 2D, Table 9 and Table 10.

The nature of series [3]: Freeze-thaw stability of derivatives (freeze-thaw yield by liquid chromatography). It is filed as physicochemical. The method in brief: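 Freeze-thaw yield is the ratio of peptide concentration after versus before one overnight −20° C freeze and room-temperature thaw, both quantified by RP-HPLC of supernatant after centrifugation. Samples were 0.2 mg/ml freeze-dried derivative in 20 mM PB, pH 7.0.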

This is an account of results in patent publication US20260166128A1, “HUMAN AMYLIN ANALOG, AND DERIVATIVE THEREOF AND USE THEREOF” (priority 2022, published 2026).

Numbered stars: 1 amine (or outer) side, 2 acyl side, 3 side chain; on linkers, the order of the positions; unused ones are H or OH. Bridge positions count the residues as written; N and C are the ends. Square brackets hold non-standard residues; d marks the D form. Side chains are listed from the residue outwards. Peptide text beside a SMILES is read from it. * marks the point of attachment. C20 diacid = O=C(O)CCCCCCCCCCCCCCCCCCC(=O)*; γGlu = O=C(O)[C@H](CCC(=O)[*:2])N[*:1]; Hyp = O=C(O)[C@@H]1C[C@@H](O)CN1; AEEA = NCCOCCOCC(=O)O

Experimental for human amylin receptor: The experiment was intended to detect the activity or efficacy of the amylin derivatives on a human amylin receptor in vitro by luciferase assay.
50 μL of growth medium (F12 medium containing 10% FBS) was added into each well of a white 96-well plate, and the stably transfected amylin/CRE-lue CHO cells were inoculated into the white 96-well plate at a density of about 20,000 cells/well for activity determination.

As a reminder, the EC50 is the concentration giving half of the maximal effect. Turning to `CC[C@H](C)[C@H](NC(=O)[C@@H]1CCCN1C(=O)CNC(=O)[C@H](CC(C)C)NC(=O)[C@H](CC(N)=O)NC(=O)[C@H](CC(N)=O)NC(=O)[C@H](CO)NC(=O)[C@H](CO)NC(=O)[C@H](Cc1c[nH]cn1)NC(=O)[C@H](CCCNC(=N)N)NC(=O)[C@H](CC(C)C)NC(=O)[C@H](Cc1ccccc1)NC(=O)[C@H](CC(=O)O)NC(=O)[C@H](C)NC(=O)[C@H](CC(C)C)NC(=O)[C@H](CCCNC(=N)N)NC(=O)[C@H](CCC(N)=O)NC(=O)[C@@H](NC(=O)[C@H](C)NC(=O)[C@@H]1CSSC[C@H](NC(=O)[C@@H](N)CCCCNC(=O)CC[C@H](NC(=O)CCCCCCCCCCCCCCCCCCC(=O)O)C(=O)O)C(=O)N[C@@H](CC(N)=O)C(=O)N[C@@H]([C@@H](C)O)C(=O)N[C@@H](C)C(=O)N[C@@H]([C@@H](C)O)C(=O)N1)[C@@H](C)O)C(=O)N[C@@H](CC(C)C)C(=O)N1CCC[C@H]1C(=O)N1CCC[C@H]1C(=O)N[C@H](C(=O)N[C@@H](CC(N)=O)C(=O)N[C@H](C(=O)NCC(=O)N[C@@H](CO)C(=O)N[C@@H](CC(N)=O)C(=O)N[C@H](C(=O)N1C[C@H](O)C[C@H]1C(N)=O)[C@@H](C)O)C(C)C)[C@@H](C)O` [PD070] (H-K([γGlu-C20 diacid])CNTATCATQRLADFLRHSSNNLGPILPPTNVGSNT[Hyp]-NH2; disulfide 2-7), the EC50 on human amylin receptor was found to be 38 pM. Further, in series [1], the thermal stability entry is reported as “extremely low decrease percentage of protein concentration”.

On to `CC[C@H](C)[C@H](NC(=O)[C@@H]1CCCN1C(=O)[C@H](CCCCN)NC(=O)[C@H](CC(C)C)NC(=O)[C@H](CC(N)=O)NC(=O)[C@H](CC(N)=O)NC(=O)[C@H](CO)NC(=O)[C@H](CO)NC(=O)[C@H](Cc1c[nH]cn1)NC(=O)[C@H](CCCNC(=N)N)NC(=O)[C@H](CC(C)C)NC(=O)[C@H](Cc1ccccc1)NC(=O)[C@H](CC(=O)O)NC(=O)[C@H](C)NC(=O)[C@H](CC(C)C)NC(=O)[C@H](CCCNC(=N)N)NC(=O)[C@H](CCC(N)=O)NC(=O)[C@@H](NC(=O)[C@H](C)NC(=O)[C@@H]1CSSC[C@H](NC(=O)[C@H](CCCCN)NC(=O)CC[C@H](NC(=O)CCCCCCCCCCCCCCCCCCC(=O)O)C(=O)O)C(=O)N[C@@H](CC(N)=O)C(=O)N[C@@H]([C@@H](C)O)C(=O)N[C@@H](C)C(=O)N[C@@H]([C@@H](C)O)C(=O)N1)[C@@H](C)O)C(=O)N[C@@H](CC(C)C)C(=O)N1CCC[C@H]1C(=O)N1CCC[C@H]1C(=O)N[C@H](C(=O)N[C@@H](CC(N)=O)C(=O)N[C@H](C(=O)NCC(=O)N[C@@H](CO)C(=O)N[C@@H](CC(N)=O)C(=O)N[C@H](C(=O)N1CCC[C@H]1C(N)=O)[C@@H](C)O)C(C)C)[C@@H](C)O` [PD160] ({C20 diacid-γGlu}-KCNTATCATQRLADFLRHSSNNLKPILPPTNVGSNTP-NH2; disulfide 2-7 (inferred)), for which the EC50 on human amylin receptor amounted to 35 pM. In series [2], the “Weight change rate at 48th hour” value is reported as −7.87.

Turning to `CC[C@H](C)[C@H](NC(=O)[C@@H]1CCCN1C(=O)[C@H](CCCNC(=N)N)NC(=O)[C@H](CC(C)C)NC(=O)[C@H](CC(N)=O)NC(=O)[C@H](CC(N)=O)NC(=O)[C@H](CO)NC(=O)[C@H](CO)NC(=O)[C@H](Cc1c[nH]cn1)NC(=O)[C@H](CCCNC(=N)N)NC(=O)[C@H](CC(C)C)NC(=O)[C@H](Cc1ccccc1)NC(=O)[C@H](CC(=O)O)NC(=O)[C@H](C)NC(=O)[C@H](CC(C)C)NC(=O)[C@H](CCCNC(=N)N)NC(=O)[C@H](CCC(N)=O)NC(=O)[C@@H](NC(=O)[C@H](C)NC(=O)[C@@H]1CSSC[C@H](NC(=O)[C@H](CCCCN)NC(=O)CC[C@H](NC(=O)CCCCCCCCCCCCCCCCCCC(=O)O)C(=O)O)C(=O)N[C@@H](CC(N)=O)C(=O)N[C@@H]([C@@H](C)O)C(=O)N[C@@H](C)C(=O)N[C@@H]([C@@H](C)O)C(=O)N1)[C@@H](C)O)C(=O)N[C@@H](CC(C)C)C(=O)N1CCC[C@H]1C(=O)N1CCC[C@H]1C(=O)N[C@H](C(=O)N[C@@H](CC(N)=O)C(=O)N[C@H](C(=O)NCC(=O)N[C@@H](CO)C(=O)N[C@@H](CC(N)=O)C(=O)N[C@H](C(=O)N1C[C@H](O)C[C@H]1C(N)=O)[C@@H](C)O)C(C)C)[C@@H](C)O` [PD158] ({C20 diacid-γGlu}-KCNTATCATQRLADFLRHSSNNLRPILPPTNVGSNT[Hyp]-NH2; disulfide 2-7 (inferred)), at human amylin receptor, the EC50 was 22 pM. Besides, in series [2], the “Weight change rate at 48th hour” value was −8.37.

As to `CC[C@H](C)[C@H](NC(=O)[C@@H]1CCCN1C(=O)[C@H](CCCNC(=N)N)NC(=O)[C@H](CC(C)C)NC(=O)[C@H](CC(N)=O)NC(=O)[C@H](CC(N)=O)NC(=O)[C@H](CO)NC(=O)[C@H](CO)NC(=O)[C@H](Cc1c[nH]cn1)NC(=O)[C@H](CCCNC(=N)N)NC(=O)[C@H](CC(C)C)NC(=O)[C@H](Cc1ccccc1)NC(=O)[C@H](CC(=O)O)NC(=O)[C@H](C)NC(=O)[C@H](CC(C)C)NC(=O)[C@H](CCCNC(=N)N)NC(=O)[C@H](CCC(N)=O)NC(=O)[C@@H](NC(=O)[C@H](C)NC(=O)[C@@H]1CSSC[C@H](NC(=O)[C@H](CCCCN)NC(=O)CC[C@H](NC(=O)CCCCCCCCCCCCCCCCCCC(=O)O)C(=O)O)C(=O)N[C@@H](CC(N)=O)C(=O)N[C@@H]([C@@H](C)O)C(=O)N[C@@H](C)C(=O)N[C@@H]([C@@H](C)O)C(=O)N1)[C@@H](C)O)C(=O)N[C@@H](CC(C)C)C(=O)N1CCC[C@H]1C(=O)N1CCC[C@H]1C(=O)N[C@H](C(=O)N[C@@H](CC(N)=O)C(=O)N[C@H](C(=O)NCC(=O)N[C@@H](CO)C(=O)N[C@@H](CC(N)=O)C(=O)N[C@H](C(=O)N1CCC[C@H]1C(N)=O)[C@@H](C)O)C(C)C)[C@@H](C)O` [PD161] ({C20 diacid-γGlu}-KCNTATCATQRLADFLRHSSNNLRPILPPTNVGSNTP-NH2; disulfide 2-7 (inferred)), on human amylin receptor, the EC50 came to 26 pM. The “Weight change rate at 48th hour” value in series [2] was −7.81.

For `CC[C@H](C)[C@H](NC(=O)[C@@H]1CCCN1C(=O)CNC(=O)[C@H](CCCCNC(=O)COCCOCCNC(=O)COCCOCCNC(=O)CC[C@H](NC(=O)CCCCCCCCCCCCCCCCCCC(=O)O)C(=O)O)NC(=O)[C@H](CC(N)=O)NC(=O)[C@H](CC(N)=O)NC(=O)[C@H](CO)NC(=O)[C@H](CO)NC(=O)[C@H](Cc1c[nH]cn1)NC(=O)[C@H](CCCNC(=N)N)NC(=O)[C@H](CC(C)C)NC(=O)[C@H](Cc1ccccc1)NC(=O)[C@H](CCC(=O)O)NC(=O)[C@H](C)NC(=O)[C@H](CC(C)C)NC(=O)[C@H](CCCNC(=N)N)NC(=O)[C@H](CCC(N)=O)NC(=O)[C@@H](NC(=O)[C@H](C)NC(=O)[C@@H]1CSSC[C@H](NC(=O)[C@@H](N)CCCNC(=N)N)C(=O)N[C@@H](CC(N)=O)C(=O)N[C@@H]([C@@H](C)O)C(=O)N[C@@H](C)C(=O)N[C@@H]([C@@H](C)O)C(=O)N1)[C@@H](C)O)C(=O)N[C@@H](CC(C)C)C(=O)N1CCC[C@H]1C(=O)N1CCC[C@H]1C(=O)N[C@H](C(=O)N[C@@H](CC(N)=O)C(=O)N[C@H](C(=O)NCC(=O)N[C@@H](CO)C(=O)N[C@@H](CC(N)=O)C(=O)N[C@H](C(=O)N1CCC[C@H]1C(N)=O)[C@@H](C)O)C(C)C)[C@@H](C)O` [PD003] (H-RCNTATCATQRLAEFLRHSSNNK([AEEA-AEEA-γGlu-C20 diacid])GPILPPTNVGSNTP-NH2; disulfide 2-7 (inferred); N-terminus assumed), the EC50 on human amylin receptor was 140 pM. The Dissolution property result in series [3] (appearance after dissolution at 0.2 mg/ml in 20 mM phosphate buffer solution (PB) (pH 7.0)) is on record as “Clear”. Also, in series [3] (appearance after overnight storage at −20° C. and thawing to room temperature, 0.2 mg/ml in 20 mM PB (pH 7.0)), the Freeze storage property entry was “Clear”.
